The values below come from patent US11014920B2, “Factor XIIa inhibitors” (Merck Sharp & Dohme Corp., priority 2016, dated 2021).

purified human Factor XIIa, sequence (P00748 373-615): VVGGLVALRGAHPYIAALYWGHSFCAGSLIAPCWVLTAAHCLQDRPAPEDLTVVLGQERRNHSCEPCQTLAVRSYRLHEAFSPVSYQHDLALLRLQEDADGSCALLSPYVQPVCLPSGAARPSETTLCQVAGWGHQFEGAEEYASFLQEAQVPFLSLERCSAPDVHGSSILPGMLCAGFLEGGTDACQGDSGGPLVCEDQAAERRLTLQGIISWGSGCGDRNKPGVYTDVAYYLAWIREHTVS
purified human Factor XIIa, sequence (P00748 20-372 partner): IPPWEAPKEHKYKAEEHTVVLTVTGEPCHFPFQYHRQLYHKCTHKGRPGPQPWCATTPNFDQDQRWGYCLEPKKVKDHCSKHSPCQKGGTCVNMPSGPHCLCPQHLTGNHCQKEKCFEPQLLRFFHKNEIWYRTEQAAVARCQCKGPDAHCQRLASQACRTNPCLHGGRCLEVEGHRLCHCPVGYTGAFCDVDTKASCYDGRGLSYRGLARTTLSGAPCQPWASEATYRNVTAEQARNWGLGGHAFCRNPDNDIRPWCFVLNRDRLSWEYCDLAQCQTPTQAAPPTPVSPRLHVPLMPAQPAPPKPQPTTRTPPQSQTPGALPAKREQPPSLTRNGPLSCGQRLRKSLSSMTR

The assay addresses purified human Factor XIIa (Homo sapiens (Human), UniProt P00748). Briefly: Factor XIIa assay. The assay is classed as biochemical. The conditions noted are these: substrate n-Acetyl-Lys-Pro-Arg-AFC 100 μM, pH 7.4, read-out: FXIIa IC50. As for the experimental part:
“FXIIa IC50(nm)” is Human Factor XIIa IC50 (nm).
The effectiveness of a compound of the present invention as an inhibitor of Coagulation Factor XIIa can be determined using a relevant purified serine protease, and an appropriate synthetic substrate. The rate of hydrolysis of the chromogenic or fluorogenic substrate by the relevant serine protease was measured both in the absence and presence of compounds of the present invention. Assays were conducted at room temperature or at 37° C. […] A decrease in the rate of fluorescence change in the presence of inhibitor is indicative of enzyme inhibition. Such methods are known to one skilled in the art. The results of this assay are expressed as the IC50, the inhibitor concentration causing a 50% decrease in Factor XIIa protease activity.
Factor XIIa activity determinations were made in 50 mM HEPES buffer containing 150 mM NaCl, 5 mM CaCl2, and 0.1% PEG 8000 (polyethylene glycol; JT Baker or Fisher Scientific) at pH 7.4. Determinations were made using purified human Factor XIIa at a final concentration of […] (Sekisui Diagnostics) and the synthetic substrate, n-Acetyl-Lys-Pro-Arg-AFC, TFA salt (Sigma # C6608) at a concentration of 100 μM.
Times required to achieve equilibration between enzyme and inhibitor were determined in control experiments. Initial velocities of product formation in the absence (Vo) or presence of inhibitor (Vi) were measured.
Regarding `Cc1cnc(C(=O)N[C@@H]2CCN(C(=O)[C@@H](CC3CCCCC3)NC3CCCCC3)C[C@@H]2C(=O)NCc2ccc3[nH]cc(Cl)c3c2)s1` [Compound 1, (3S,4R)-N-[(3-chloro-1H-indol-5-yl)methyl]-1-(N,3-dicyclohexyl-D-alanyl)-4-{[(5-methyl-1,3-thiazol-2-yl)carbonyl]amino}pi-peridine-3-carboxamide], the half-maximal inhibitory concentration (IC50) – broadly, the concentration at which inhibition is half-maximal – came to 49.2 nM.

Regarding `Cc1cnc(C(=O)NC2CCN(C(=O)[C@@H](CC3CCCCC3)NC3CCCCC3)CC2C(=O)NCc2ccc(CN)cc2)s1` (stereo partly drawn) [Compound 2, N-[4-(aminomethyl)benzyl]-1-(N,3-dicyclohexyl-D-alanyl)-4-{[(5-methyl-1,3-thiazol-2-yl)carbonyl]amino}pi-peridine-3-carboxamide], the 50% inhibitory concentration (IC50) was 73.3 nM.

For the compound `Cc1cnc(C(=O)N[C@@H]2CCN(C(=O)[C@@H](CCCCN)NC3CCCCC3)C[C@@H]2C(=O)NCc2cccs2)s1` [Compound 3, (3S,4R)-1-(N~2~- cyclohexyl-D-lysyl)-4-{[(5-methyl-1,3-thiazol-2-yl)carbonyl]amino}-N-(thiophen-2-ylmethyl)piperidine-3-carboxamide], the IC50 stood at 109 nM.

In the case of `Cc1cnc(C(=O)N[C@@H]2CCN(C(=O)[C@@H](CC3CCCCC3)NC3CCCCC3)C[C@@H]2C(=O)NCc2ccnc(N)c2)s1` [Compound 4, (3S,4R)-N-[(2-aminopyridin-4-yl)methyl]-1-(N,3-dicyclohexyl-D-alanyl)-4-{[(5-methyl-1,3-thiazol-2-yl)carbonyl]amino}pi-peridine-3-carboxamide], the IC50 stood at 65.1 nM.

`CN(C)CCCC[C@H](C(=O)N1CC[C@@H](NC(=O)c2ccc(F)c(F)c2)[C@@H](C(=O)NCc2cccs2)C1)N(C)C1CCCCC1` [Compound 5, (3S,4R)-1-(N~2~- cyclohexyl-N~2~,N~6~,N~6~- trimethyl-D-lysyl)-4-{[(3,4-difluoro-phenyl)carbonyl]amino}-N-(thiophen-2-ylmethyl)piperidine-3-carboxamide]: the half-inhibitory concentration (IC50) was 71.6 nM.

Take `CN(C)CCCC[C@H](C(=O)N1CC[C@@H](NC(=O)c2ccc(F)cc2)[C@@H](C(=O)NCc2cccs2)C1)N(C)C1CCCCC1` [Compound 6, (3S,4R)-1-(N~2~- cyclohexyl-N~2~,N~6~,N~6~- trimethyl-D-lysyl)-4-{[(4-fluoro-phenyl)carbonyl]amino}-N-(thiophen-2-ylmethyl)piperidine-3-carboxamide]: the IC50 came to 98.3 nM.

Regarding `CN(C)CCCC[C@H](C(=O)N1CC[C@@H](NC(=O)c2ccc(F)cc2F)[C@@H](C(=O)NCc2cccs2)C1)N(C)C1CCCCC1` [Compound 7, (3S,4R)-1-(N~2~- cyclohexyl-N~2~,N~6~,N~6~- trimethyl-D-lysyl)-4-{[(2,4-difluoro-phenyl)carbonyl]amino}-N-(thiophen-2-ylmethyl)piperidine-3-carboxamide], the half-maximal inhibitory concentration (IC50) is 18.7 nM.

Consider `CN(C)CCCC[C@H](C(=O)N1CC[C@@H](NC(=O)c2ccccc2)[C@@H](C(=O)NCc2cccs2)C1)N(C)C1CCCCC1` [Compound 8, (3S,4R)-1-(N~2~- cyclohexyl-N~2~,N~6~,N~6~- trimethyl-D-lysyl)-4-[(phenylcarbonyl)amino]-N-(thiophen-2-ylmethyl)piperidine-3-carboxamide], for which the 50% inhibitory concentration (IC50) was 60.2 nM.

For the compound `CN(C)CCCC[C@H](C(=O)N1CC[C@@H](NC(=O)c2ccc(Cl)cc2)[C@@H](C(=O)NCc2cccs2)C1)N(C)C1CCCCC1` [Compound 9, (3S,4R)-4-{[(4-chloro-phenyl)carbonyl]amino}-1-(N~2~- cyclohexyl-N~2~,N~6~,N~6~- trimethyl-D-lysyl)-N-(thiophen-2-ylmethyl)piperidine-3-carboxamide], the IC50 was determined as 11.5 nM.

For the compound `CN(C)CCCC[C@H](C(=O)N1CC[C@@H](NC(=O)c2cc(F)c(F)cc2F)[C@@H](C(=O)NCc2cccs2)C1)N(C)C1CCCCC1` [Compound 10, (3S,4R)-1-(N~2~- cyclohexyl-N~2~,N~6~,N~6~- trimethyl-D-lysyl)-N-(thiophen-2-ylmethyl)-4-{[(2,4,5-trifluoro-phenyl)carbonyl]amino}pi-peridine-3-carboxamide], the IC50 was found to be 29.2 nM.

As to `NCCCC[C@@H](NC1CCCCC1)C(=O)N1CC[C@@H](NC(=O)N2CCC3(CC2)CC3)[C@@H](C(=O)NCc2cccs2)C1` [Compound 11, N-{(3S,4R)-1-(N~2~- cyclohexyl-D-lysyl)-3-[(thiophen-2-ylmethyl)carbamoyl]pi-peridin-4-yl}-6-azaspiro[2.5]octane-6-carboxamide], the half-inhibitory concentration (IC50) stood at 71.6 nM.

Turning to `NCc1ccc(CNC(=O)[C@H]2CN(C(=O)[C@@H](CC3CC3)NC3CCCCC3)CC[C@H]2NC(=O)N2CCC3(CC2)CC3)cc1` [Compound 12, N-[(3S,4R)-3-{[4-(amino-methyl)benzyl]carbamoyl}-1-(N-cyclohexyl-3-cyclopropyl-D-alanyl)piperidin-4-yl]-6-azaspiro[2.5]octane-6-carboxamide], the IC50 is 41.7 nM.

For the compound `NCCCC[C@@H](NC1CCCCC1)C(=O)N1CC[C@@H](NC(=O)N2CCC3(CC2)CC3)[C@@H](C(=O)NCc2ccccc2)C1` [Compound 13, N-[(3S,4R)-3-(benzylcarbamoyl)-1-(N~2~-cyclohexyl-D-lysyl)piperidin-4-yl]-6-azaspiro[2.5]octane-6-carboxamide], the concentration for half-maximal inhibition (IC50) was determined as 98.3 nM.

As to `NCCCC[C@@H](NC1CCCCC1)C(=O)N1CC[C@@H](NC(=O)N2CCC3(CC2)CC3)[C@@H](C(=O)NCc2ccc(CN)cc2)C1` [Compound 14, N-[(3S,4R)-3-{[4-(amino-methyl)benzyl]carbamoyl}-1-(N~2~-cyclohexyl-D-lysyl)piperidin-4-yl]-6-azaspiro[2.5]octane-6-carboxamide], the 50% inhibitory concentration (IC50) is 18.7 nM.

As to `Cc1csc(CNC(=O)[C@H]2CN(C(=O)[C@@H](CCCCN)NC3CCCCC3)CC[C@H]2NC(=O)N2CCC3(CC2)CC3)c1` [Compound 15, N-[(3S,4R)-1-(N~2~- cyclohexyl-D-lysyl)-3-{[(4-methylthiophen-2-yl)methyl]carbamoyl}pi-peridin-4-yl]-6-azaspiro[2.5]octane-6-carboxamide], the IC50 was 60.2 nM.

Consider `O=C(NCc1cccs1)[C@H]1CN(C(=O)[C@@H](CCCCN2CCCS2(=O)=O)NC2CCCCC2)CC[C@H]1NC(=O)N1CCC2(CC1)CC2` [Compound 17, N-{(3S,4R)-1-[N-cyclohexyl-6-(1,1-dioxidoisothiazolidin-2-yl)-D-norleucyl]-3-[(thiophen-2-ylmethyl)carbamoyl]pi-peridin-4-yl}-6-azaspiro[2.5]octane-6-carboxamide], for which the IC50 came out at 11.5 nM.

With `CS(=O)(=O)NCCCC[C@@H](NC1CCC2(CC1)CCN(Cc1ccccc1)C2)C(=O)N1CC[C@@H](NC(=O)N2CCC3(CC2)CC3)[C@@H](C(=O)NCc2cccs2)C1` (stereo partly drawn) [Compound 18, N-{(3S,4R)-1-[N~2~- (2-benzyl-2-azaspiro[4.5]dec-8-yl)-N~6~-(methylsulfonyl)-D-lysyl]-3-[(thiophen-2-ylmethyl)carbamoyl]pi-peridin-4-yl}-6-azaspiro[2.5]octane-6-carboxamide], the concentration for half-maximal inhibition (IC50) came out at 29.2 nM.

As for `O=C(NCc1cccs1)[C@H]1CN(C(=O)[C@@H](CCCCNS(=O)(=O)C2CC2)NC2CCCCC2)CC[C@H]1NC(=O)N1CCC2(CC1)CC2` [Compound 19, N-{(3S,4R)-1-[N~2~- cyclohexyl-N~6~- (cyclopropylsulfonyl)-D-lysyl]-3-[(thiophen-2-ylmethyl)carbamoyl]pi-peridin-4-yl}-6-azaspiro[2.5]octane-6-carboxamide], the IC50 was determined as 43.1 nM.

For the compound `O=C(NCc1cccs1)[C@H]1CN(C(=O)[C@@H](CC2CCNCC2)NC2CCCCC2)CC[C@H]1NC(=O)N1CCC2(CC1)CC2` [Compound 20, N-{(3S,4R)-1-(N-cyclohexyl-3-piperidin-4-yl-D-alanyl)-3-[(thiophen-2-ylmethyl)carbamoyl]pi-peridin-4-yl}-6-azaspiro[2.5]octane-6-carboxamide], the 50% inhibitory concentration (IC50) worked out at 47.2 nM.

Take `CCS(=O)(=O)NCCCC[C@@H](NC1CCCCC1)C(=O)N1CC[C@@H](NC(=O)N2CCC3(CC2)CC3)[C@@H](C(=O)NCc2cccs2)C1` [Compound 21, N-{(3S,4R)-1-[N~2~- cyclohexyl-N~6~- (ethylsulfonyl)-D-lysyl]-3-[(thiophen-2-ylmethyl)carbamoyl]pi-peridin-4-yl}-6-azaspiro[2.5]octane-6-carboxamide]: the IC50 was 51.2 nM.

Take `O=C(NCc1cccs1)[C@H]1CN(C(=O)[C@@H](CCCCNCC(F)(F)F)NC2CCCCC2)CC[C@H]1NC(=O)N1CCC2(CC1)CC2` [Compound 22, N-{(3S,4R)-1-[N~2~- cyclohexyl-N~6~- (2,2,2-trifluoroethyl)-D-lysyl]-3-[(thiophen-2-ylmethyl)carbamoyl]pi-peridin-4-yl}-6-azaspiro[2.5]octane-6-carboxamide]: the IC50 stood at 46.5 nM.

For `CS(=O)(=O)NCCCC[C@@H](NC1CCCCC1)C(=O)N1CC[C@@H](NC(=O)N2CCC3(CC2)CC3)[C@@H](C(=O)NCc2cccs2)C1` [Compound 23, N-{(3S,4R)-1-[N~2~- cyclohexyl-N~6~- (methylsulfonyl)-D-lysyl]-3-[(thiophen-2-ylmethyl)carbamoyl]pi-peridin-4-yl}-6-azaspiro[2.5]octane-6-carboxamide], the IC50 turned out to be 52.4 nM.
